Consider 4 substances from patent publication US20190111103A1, “NOVEL PEPTIDE OR SALT THEREOF, COMPOSITION FOR ENHANCING PROLIFERATION OF FIBROBLAST CELLS AND COMPOSITION FOR ENHANCING ELASTIN PRODUCTION IN FIBROBLAST CELLS AND CHONDROCYTES CONTAINING THE SAME” (Hayashikane Sangyo Co., Ltd., priority 2017, published 2019).

Experiment [1] has as its system normal human skin fibroblast cells. The experiment is described as follows: Proliferation test of normal human skin fibroblast cells. It counts as cell-based. The settings on record: similar experiment with the hydrolysate. As to the method:
Skin fibroblast cells cultured in a culture flask was seeded in a 96-well plate at 3,500 cells/cm^2 ([…], medium: 10% FBS DMEM). After incubating for 24 hours at 37° C. under 5% CO2 condition, the liquid medium in the wells was removed, replaced with DMEM containing 0.5% FBS and incubated for 24 hours under similar conditions. The liquid medium in the wells was removed and the wells were washed with DPBS, after which DPBS was removed. Solutions of predetermined concentrations of peptide Val-Pro-Gly-Gly (VPGG) and peptide Val-Pro-Gly-Ala (VPGA) were prepared using DMEM containing 0.5% FBS were prepared and 100 μL of the solution was added to each well. Fibroblast cells were incubated for 4 days at 37° C. under 5% CO2 condition and supernatant was recovered. The supernatant recovered was used for a measurement of amount of elastin production in Example 2. DMEM containing 0.5% FBS was added and cells were counted using cell counting kit-8 (10 μL/well) and a cell proliferation rate relative to the cell number obtained from the sample without adding the peptides.

Experiment [2] deals with human skin fibroblast cells. The note with it: known from the literature (positive control); cited from earlier work.
Experiment [3] relates to normal human knee joint chondrocytes (NHAc-kn). The experiment is described as follows: Elastin production test in normal human knee joint chondrocytes (dot blot). Type of experiment: cell-based. How it is done:
Normal human knee joint chondrocytes (NHAc-kn: 1.0×10^5 cells/mL) were seeded in a 24-well plate (900 μL/well, medium: CBM+0.5% FBS) and incubated under humidification condition at 37° C. in 5% CO2 atmosphere for 48 hours. The medium was exchanged and peptide VPGG and peptide VP was added (100 μL/well, final concentration: 0 to 5000 nM) and incubated under humidification condition at 37° C. in 5% CO2 atmosphere for 48 hours. From the cell culture thus obtained, supernatant was collected and dot-blotted onto a PVDF membrane. After blocking with PBST containing 5% skim milk, the membrane was washed with PBST. The membrane was reacted with rabbit anti-elastin antibody as a primary antibody, washed with PBST and reacted with HRP conjugate goat […] as a secondary antibody and washed with PBST. The membrane was reacted with a detection reagent ImmunoStar (FUJIFILM Wako Pure Chemical Corporation) and the amount of elastin production was estimated based on intensities of signals obtained.

Experiment [4] has as its system human skin fibroblast cells. The experiment is described as follows: Migration activity test of normal human skin fibroblast cells. It counts as cell-based. The note with it: 20 hours, membrane inserts pore size 8 μm, absorbance at 560 nm. How it is done:
Effect of peptide Val-Pro-Gly-Gly on a migration activity of fibroblast cells that relates to processes of recovery and regeneration of tissue and wound healing was investigated. To bottom of each well of 24-well plate of CytoSelect (registered trade mark) 24-well Cell Migration Assay Kit (Cell Biotics), DMEM medium (control), 500 μL of peptide Val-Pro-Gly-Gly or peptide Val-Pro-Gly (positive control: see “Elastin—Structure, Function and Pathology”, edited and written by Hiroyuki Ito, Elastin Study Group of Japan (not for sale), p. 124-137, 2008) dissolved in DMEM medium were added. Then, 300 μL of cell suspension of human skin fibroblast cells (P4 to 5) prepared by dispersing the cell in DMEM media (1×10^6 cells/mL) was added inside membrane inserts (pore size: 8 μm). The inserts were inserted in wells and incubated in a cell incubator at 37° C. for 20 hours (in preliminary examination, duration of incubation was also set to 6 hours). […] Cells were stained by adding 400 μL of cell stain liquid and staining for 10 minutes at room temperature. Then the inserts were washed with distilled water, dried and stain was confirmed by optical microscopic observation. […] of reaction mixture was placed in 96-well plate and absorbance at 560 nm was measured using a plate reader.

Take “Val-Pro-Gly-Ala (VPGA; printed: Val-Pro-Gly-Ala)”: the “cell proliferation rate compared with hydrolysate of elastin from bonitos bulbus arteriosus” value in experiment [1] is recorded as “higher cell proliferation rate”.

Regarding Val-Pro-Gly, the “effect for promoting cell migration” value in experiment [2] is “known to have the effect for promoting cell migration”.

Take Val-Pro: the “effect on the elastin production in the chondrocytes” value in experiment [3] was “promoting effect”.

On to “Val-Pro-Gly-Gly (VPGG; printed: Val-Pro-Gly-Gly)”, for which the “cell proliferation rate compared with hydrolysate of elastin from bonitos bulbus arteriosus” value in experiment [1] is recorded as “higher cell proliferation rate”. In addition, in experiment [4], the “effect for promoting cell migration compared with peptide Val-Pro-Gly (positive control)” value is “significantly higher effect for promoting cell migration”.
